Experimental data from patent US11083725B2 (priority 2014, dated 2021).

Test system: NHBE cells
Assay: Biolog metabolic array: substrate use by NHBE cells with or without CA09 infection
Assay type: cell-based, human
Details: for Substrate use, 590 nm absorbance normalized to zero hour, 0 hr: Biolog PMM2, 0 hr; for Substrate use, 590 nm absorbance normalized to zero hour, 1 hr: Biolog PMM2, 1 hr; for Substrate use, 590 nm absorbance normalized to zero hour, 5 hr: Biolog PMM2, 5 hr; for Substrate use, 590 nm absorbance normalized to zero hour, 7 hr: Biolog PMM2, 7 hr
[1] = Control (uninfected) NHBE cells
[2] = Virus (CA09-infected, MOI 1) NHBE cells
[3] = Virus: CA09-infected NHBE cells, MOI 1, Biolog PMM2
[4] = Virus (CA09-infected NHBE cells, MOI 1)
[5] = Virus (CA09, MOI 1) infected NHBE cells

O=C(O)C[C@H](O)C(=O)O [L-Malic Acid]
590 nm absorbance normalized to zero hour (substrate use), 0 hr [1]: 1.00
590 nm absorbance normalized to zero hour (substrate use), 1 hr [1]: 1.11
590 nm absorbance normalized to zero hour (substrate use), 2 hr [1]: 1.27
590 nm absorbance normalized to zero hour (substrate use), 3 hr [1]: 1.37
590 nm absorbance normalized to zero hour (substrate use), 4 hr [1]: 1.35
590 nm absorbance normalized to zero hour (substrate use), 6 hr [1]: 0.72
590 nm absorbance normalized to zero hour (substrate use), 8 hr [1]: 1.35
590 nm absorbance normalized to zero hour (substrate use), 9 hr [1]: 1.39
590 nm absorbance normalized to zero hour (substrate use), 10 hr [1]: 1.37
590 nm absorbance normalized to zero hour (substrate use), 11 hr [1]: 1.43
Substrate use, 590 nm absorbance normalized to zero hour, 0 hr [1]: 1.00
Substrate use, 590 nm absorbance normalized to zero hour, 1 hr [1]: 1.11
Substrate use, 590 nm absorbance normalized to zero hour, 5 hr [1]: 1.41
Substrate use, 590 nm absorbance normalized to zero hour, 7 hr [1]: 1.33
590 nm absorbance normalized to zero hour (substrate use), 0 hr [2]: 1.00
590 nm absorbance normalized to zero hour (substrate use), 1 hr [2]: 1.48
590 nm absorbance normalized to zero hour (substrate use), 2 hr [2]: 1.19
590 nm absorbance normalized to zero hour (substrate use), 3 hr [2]: 1.27
590 nm absorbance normalized to zero hour (substrate use), 4 hr [2]: 3.32
590 nm absorbance normalized to zero hour (substrate use), 5 hr [2]: 1.59
590 nm absorbance normalized to zero hour (substrate use), 6 hr [2]: 1.42
590 nm absorbance normalized to zero hour (substrate use), 7 hr [2]: 2.93
590 nm absorbance normalized to zero hour (substrate use), 8 hr [2]: 3.48
590 nm absorbance normalized to zero hour (substrate use), 9 hr [2]: 1.72
590 nm absorbance normalized to zero hour (substrate use), 10 hr [2]: 2.20
590 nm absorbance normalized to zero hour (substrate use), 11 hr [2]: 2.05
590 nm absorbance normalized to zero hour (substrate use), 0 hr [3]: 1.00
590 nm absorbance normalized to zero hour (substrate use), 1 hr [3]: 1.48
590 nm absorbance normalized to zero hour (substrate use), 2 hr [3]: 1.19
590 nm absorbance normalized to zero hour (substrate use), 3 hr [3]: 1.27
590 nm absorbance normalized to zero hour (substrate use), 4 hr [3]: 3.32
590 nm absorbance normalized to zero hour (substrate use), 5 hr [3]: 1.59
590 nm absorbance normalized to zero hour (substrate use), 6 hr [3]: 1.42
590 nm absorbance normalized to zero hour (substrate use), 7 hr [3]: 2.93
590 nm absorbance normalized to zero hour (substrate use), 8 hr [3]: 3.48
590 nm absorbance normalized to zero hour (substrate use), 9 hr [3]: 1.72
590 nm absorbance normalized to zero hour (substrate use), 10 hr [3]: 2.20
590 nm absorbance normalized to zero hour (substrate use), 11 hr [3]: 2.05

C[C@H](O)[C@H](O)[C@@H](O)[C@@H](O)C=O [L-Rhamnose]
590 nm absorbance normalized to zero hour (substrate use), 1 hr [1]: 1.28
590 nm absorbance normalized to zero hour (substrate use), 2 hr [1]: 1.52
590 nm absorbance normalized to zero hour (substrate use), 3 hr [1]: 1.49
590 nm absorbance normalized to zero hour (substrate use), 4 hr [1]: 1.66
590 nm absorbance normalized to zero hour (substrate use), 6 hr [1]: 2.53
590 nm absorbance normalized to zero hour (substrate use), 8 hr [1]: 2.01
590 nm absorbance normalized to zero hour (substrate use), 9 hr [1]: 2.71
590 nm absorbance normalized to zero hour (substrate use), 10 hr [1]: 2.22
590 nm absorbance normalized to zero hour (substrate use), 11 hr [1]: 2.36
Substrate use, 590 nm absorbance normalized to zero hour, 1 hr [1]: 1.28
Substrate use, 590 nm absorbance normalized to zero hour, 5 hr [1]: 2.12
Substrate use, 590 nm absorbance normalized to zero hour, 7 hr [1]: 1.91
590 nm absorbance normalized to zero hour (substrate use), 1 hr [4]: 0.16
590 nm absorbance normalized to zero hour (substrate use), 2 hr [4]: 0.22
590 nm absorbance normalized to zero hour (substrate use), 3 hr [4]: 0.25
590 nm absorbance normalized to zero hour (substrate use), 4 hr [4]: 0.28
590 nm absorbance normalized to zero hour (substrate use), 5 hr [4]: 0.32
590 nm absorbance normalized to zero hour (substrate use), 6 hr [4]: 0.34
590 nm absorbance normalized to zero hour (substrate use), 7 hr [4]: 0.36
590 nm absorbance normalized to zero hour (substrate use), 8 hr [4]: 0.38
590 nm absorbance normalized to zero hour (substrate use), 9 hr [4]: 0.41
590 nm absorbance normalized to zero hour (substrate use), 10 hr [4]: 0.43
590 nm absorbance normalized to zero hour (substrate use), 11 hr [4]: 0.46
590 nm absorbance normalized to zero hour (substrate use), 1 hr [3]: 0.16
590 nm absorbance normalized to zero hour (substrate use), 2 hr [3]: 0.22
590 nm absorbance normalized to zero hour (substrate use), 3 hr [3]: 0.25
590 nm absorbance normalized to zero hour (substrate use), 4 hr [3]: 0.28
590 nm absorbance normalized to zero hour (substrate use), 5 hr [3]: 0.32
590 nm absorbance normalized to zero hour (substrate use), 6 hr [3]: 0.34
590 nm absorbance normalized to zero hour (substrate use), 7 hr [3]: 0.36
590 nm absorbance normalized to zero hour (substrate use), 8 hr [3]: 0.38
590 nm absorbance normalized to zero hour (substrate use), 9 hr [3]: 0.41
590 nm absorbance normalized to zero hour (substrate use), 10 hr [3]: 0.43
590 nm absorbance normalized to zero hour (substrate use), 11 hr [3]: 0.46

O=C(CO)[C@@H](O)[C@H](O)[C@@H](O)CO [L-Sorbose]
590 nm absorbance normalized to zero hour (substrate use), 0 hr [1]: 1.00
590 nm absorbance normalized to zero hour (substrate use), 1 hr [1]: 1.57
590 nm absorbance normalized to zero hour (substrate use), 2 hr [1]: 2.05
590 nm absorbance normalized to zero hour (substrate use), 3 hr [1]: 2.28
590 nm absorbance normalized to zero hour (substrate use), 4 hr [1]: 2.38
590 nm absorbance normalized to zero hour (substrate use), 6 hr [1]: 4.12
590 nm absorbance normalized to zero hour (substrate use), 8 hr [1]: 2.81
590 nm absorbance normalized to zero hour (substrate use), 9 hr [1]: 2.80
590 nm absorbance normalized to zero hour (substrate use), 10 hr [1]: 3.02
590 nm absorbance normalized to zero hour (substrate use), 11 hr [1]: 2.98
Substrate use, 590 nm absorbance normalized to zero hour, 0 hr [1]: 1.00
Substrate use, 590 nm absorbance normalized to zero hour, 1 hr [1]: 1.57
Substrate use, 590 nm absorbance normalized to zero hour, 5 hr [1]: 2.79
Substrate use, 590 nm absorbance normalized to zero hour, 7 hr [1]: 2.84
590 nm absorbance normalized to zero hour (substrate use), 0 hr [4]: 1.00
590 nm absorbance normalized to zero hour (substrate use), 1 hr [4]: 0.18
590 nm absorbance normalized to zero hour (substrate use), 2 hr [4]: 0.23
590 nm absorbance normalized to zero hour (substrate use), 3 hr [4]: 0.26
590 nm absorbance normalized to zero hour (substrate use), 4 hr [4]: 0.28
590 nm absorbance normalized to zero hour (substrate use), 5 hr [4]: 0.32
590 nm absorbance normalized to zero hour (substrate use), 6 hr [4]: 0.34
590 nm absorbance normalized to zero hour (substrate use), 7 hr [4]: 0.37
590 nm absorbance normalized to zero hour (substrate use), 8 hr [4]: 0.38
590 nm absorbance normalized to zero hour (substrate use), 9 hr [4]: 0.41
590 nm absorbance normalized to zero hour (substrate use), 10 hr [4]: 0.41
590 nm absorbance normalized to zero hour (substrate use), 11 hr [4]: 0.48
590 nm absorbance normalized to zero hour (substrate use), 0 hr [3]: 1.00
590 nm absorbance normalized to zero hour (substrate use), 1 hr [3]: 0.18
590 nm absorbance normalized to zero hour (substrate use), 2 hr [3]: 0.23
590 nm absorbance normalized to zero hour (substrate use), 3 hr [3]: 0.26
590 nm absorbance normalized to zero hour (substrate use), 4 hr [3]: 0.28
590 nm absorbance normalized to zero hour (substrate use), 5 hr [3]: 0.32
590 nm absorbance normalized to zero hour (substrate use), 6 hr [3]: 0.34
590 nm absorbance normalized to zero hour (substrate use), 7 hr [3]: 0.37
590 nm absorbance normalized to zero hour (substrate use), 8 hr [3]: 0.38
590 nm absorbance normalized to zero hour (substrate use), 9 hr [3]: 0.41
590 nm absorbance normalized to zero hour (substrate use), 10 hr [3]: 0.41
590 nm absorbance normalized to zero hour (substrate use), 11 hr [3]: 0.48

OC[C@@H](O)[C@@H](O[C@@H]1O[C@H](CO)[C@H](O)[C@H](O)[C@H]1O)[C@H](O)[C@@H](O)CO [Lactitol]
590 nm absorbance normalized to zero hour (substrate use), 1 hr [1]: 0.19
590 nm absorbance normalized to zero hour (substrate use), 2 hr [1]: 0.26
590 nm absorbance normalized to zero hour (substrate use), 3 hr [1]: 0.31
590 nm absorbance normalized to zero hour (substrate use), 4 hr [1]: 0.33
590 nm absorbance normalized to zero hour (substrate use), 6 hr [1]: 0.40
590 nm absorbance normalized to zero hour (substrate use), 8 hr [1]: 0.47
590 nm absorbance normalized to zero hour (substrate use), 9 hr [1]: 0.50
590 nm absorbance normalized to zero hour (substrate use), 10 hr [1]: 0.55
590 nm absorbance normalized to zero hour (substrate use), 11 hr [1]: 0.62
Substrate use, 590 nm absorbance normalized to zero hour, 1 hr [1]: 0.19
Substrate use, 590 nm absorbance normalized to zero hour, 5 hr [1]: 0.39
Substrate use, 590 nm absorbance normalized to zero hour, 7 hr [1]: 0.44
Substrate use, 590 nm absorbance normalized to zero hour, 1 hr [5]: 1.61
Substrate use, 590 nm absorbance normalized to zero hour, 5 hr [5]: 3.16
Substrate use, 590 nm absorbance normalized to zero hour, 7 hr [5]: 3.55
590 nm absorbance normalized to zero hour (substrate use), 1 hr [2]: 1.61
590 nm absorbance normalized to zero hour (substrate use), 2 hr [2]: 2.20
590 nm absorbance normalized to zero hour (substrate use), 3 hr [2]: 2.54
590 nm absorbance normalized to zero hour (substrate use), 4 hr [2]: 2.73
590 nm absorbance normalized to zero hour (substrate use), 6 hr [2]: 3.38
590 nm absorbance normalized to zero hour (substrate use), 8 hr [2]: 3.76
590 nm absorbance normalized to zero hour (substrate use), 9 hr [2]: 4.11
590 nm absorbance normalized to zero hour (substrate use), 10 hr [2]: 4.31
590 nm absorbance normalized to zero hour (substrate use), 11 hr [2]: 4.66
